Positions count from the first letter of the chain named.

The target in one assay is T1, CquiOR32/CquiOrco (Culex quinquefasciatus, UniProt A0A0K0KUF8).
T1 sequence (A0A0K0KUF8 1-397): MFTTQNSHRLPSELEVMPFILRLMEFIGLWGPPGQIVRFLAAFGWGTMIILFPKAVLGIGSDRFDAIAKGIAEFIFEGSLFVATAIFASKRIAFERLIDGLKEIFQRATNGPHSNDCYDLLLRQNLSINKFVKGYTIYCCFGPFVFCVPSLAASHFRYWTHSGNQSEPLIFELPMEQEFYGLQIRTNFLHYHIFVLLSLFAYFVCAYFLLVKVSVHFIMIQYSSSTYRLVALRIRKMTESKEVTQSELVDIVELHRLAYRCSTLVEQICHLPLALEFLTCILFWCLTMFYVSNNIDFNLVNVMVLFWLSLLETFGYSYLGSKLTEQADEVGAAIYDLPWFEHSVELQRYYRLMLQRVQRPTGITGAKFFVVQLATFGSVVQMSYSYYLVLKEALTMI
T1 sequence (UPI0018E3CDA7 1-480 partner): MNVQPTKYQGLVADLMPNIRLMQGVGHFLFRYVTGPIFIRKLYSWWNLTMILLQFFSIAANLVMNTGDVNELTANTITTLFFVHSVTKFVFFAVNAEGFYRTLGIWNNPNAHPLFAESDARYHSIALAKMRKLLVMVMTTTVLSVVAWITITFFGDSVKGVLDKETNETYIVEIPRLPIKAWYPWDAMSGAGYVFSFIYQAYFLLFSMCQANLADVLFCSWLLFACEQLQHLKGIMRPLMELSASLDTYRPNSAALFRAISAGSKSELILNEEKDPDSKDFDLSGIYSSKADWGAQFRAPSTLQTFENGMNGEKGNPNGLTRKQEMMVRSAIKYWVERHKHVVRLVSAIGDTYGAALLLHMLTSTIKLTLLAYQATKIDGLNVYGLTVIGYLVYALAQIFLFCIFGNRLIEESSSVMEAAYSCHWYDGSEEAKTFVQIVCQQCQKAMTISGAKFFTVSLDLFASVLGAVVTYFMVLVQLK
Kind of assay: two-electrode voltage clamp, Xenopus oocytes. To be noted: 1 mM source dose, -80 mV, pH 7.6. Format: cell-based. (Two-electrode voltage clamp holds a large cell at a set potential and records current.)

Another assay deals with T2, CquiOrco (Culex quinquefasciatus, UniProt Q309I4).
T2 sequence (Q309I4 1-480): T1 sequence (UPI0018E3CDA7 1-480 partner) with E267K, I399V
Put plainly: two-electrode voltage clamp, Xenopus oocytes. In kind it is cell-based. To be noted: agonist; coreceptor expressed alone; pH 7.6.

`COC(=O)c1ccccc1O` [methyl salicylate]: the “two-electrode voltage clamp, Xenopus oocytes” value (“two-electrode voltage clamp” below) at CquiOR32/CquiOrco (agonist, inward currents) is given as “Methyl salicylate-elicited inward currents recorded with CquiOR32/CquiOrco-expressing oocytes”. For `CCn1c(SCC(=O)Nc2ccc(C(C)C)cc2)nnc1-c1ccncc1` [OLC12, 2-{[4-Ethyl-5-(4-pyridinyl)-4H-1,2,4-triazol-3-yl]sulfanyl}-N-(4-isopropylphenyl)acetamide], at CquiOrco, the “two-electrode voltage clamp” value is on record as “CquiOrco-expressing oocytes generated inward currents when challenged with OLC12”. Regarding `CC12CCC(C1)C(C)(C)C2=O` (stereo not drawn) [fenchone], the “two-electrode voltage clamp” value on CquiOR32/CquiOrco (inhibitor, outward currents) was “more prominent than the outward currents elicited by fenchone and eucalyptol”.
